The subject of the test is E. coli. Nature of the test: Disinfection of E. coli-infected surfaces, SYTO9/PI confocal fluorescence microscopy. The test is classed as cell-based. As to conditions: on stainless steel, plastic and spinach leaf, 20 min treatment. As to the method:
The efficacy of AquaROS as a disinfectant for reducing pathogen concentration was tested with three different surfaces infected with E. coli: stainless steel, plastic, and spinach leaf (cut from a single leaf as 1-cm×1-cm squares and washed 3× with distilled water and dried ambiently prior to E. coli deposition). For these experiments, E. coli was cultured in LB broth at 37° C. for approximately 16 hours. Using sterilized LB broth, the E. coli suspension was diluted to a concentration of 4.5×10^8 cells/mL, using a UV-vis spectrophotometer to monitor absorption at 600 nm. Infection of each surface was achieved by deposition of 10 μL of 4.5×10^8 cell/mL E. coli suspension followed by drying in a desiccator for approximately 10 min. AquaROS was applied by spraying pure water at 120 psi and at a height of 1.5 cm from the E. coli surface with a 10 μl/min flow rate for 20 min (FIG. 6). Control samples were treated by depositing 100 μL of 3% H2O2 and allowing it to react for 20 min at room temperature. Following treatment with AquaROS spray and 3% H2O2, 1 mL PBS 1× (pH 7.4) was added to the glass vial containing the treated material, swirled, then pipetted into a 1-mL Eppendorf tube. […]
FIG. 7 is a plot of E. coli death by AquaROS spray on the different surfaces compared to 3% H2O2. Cell death data were acquired by confocal fluorescence microscopy of each sample placed on a glass slide. […]

For the compound `OO` [3% H2O2, hydrogen peroxide], the E. coli death entry is reported as “approximately 60%”.
